Assay: xn = mol fraction of the nth substance listed
Details: 100 kPa

CCCCCCCC[P+](CC)(CC)CC.O=[N+]([O-])c1c[n-]cn1 + COCCOCCOCCOCCOC
viscosity [mPa·s]
Details | 278.15 K | 283.15 K | 288.15 K | 293.15 K | 298.15 K | 303.15 K | 308.15 K | 313.15 K | 318.15 K | 323.15 K
x1 = 0.499 | 77 | 60 | – | – | – | – | – | – | – | –
x1 = 0.599 | – | 93 | 72 | 56 | – | – | – | – | – | –
x1 = 0.699 | – | 153 | – | 87 | 69 | 55 | – | – | – | –
x1 = 0.8 | 385 | 274 | 198 | 148 | 113 | 88 | 70 | 57 | – | –
x1 = 0.9 | 700 | 481 | 337 | 243 | – | 137 | 107 | 85 | 69 | 56
x1 = 1 | – | 838 | – | 398 | 286 | 212 | 160 | 124 | 98 | 78

CCCn1cc[n+](C)c1C.O=[N+]([O-])c1cn[n-]c1 + COCCOCCOCCOCCOC
viscosity [mPa·s]
Details | 278.15 K | 283.15 K | 288.15 K | 293.15 K | 298.15 K | 303.15 K | 308.15 K | 313.15 K | 318.15 K | 323.15 K
x2 = 0.05 | 5420 | 2660 | 1400 | 798 | 487 | 314 | 213 | 150 | 111 | 84
x2 = 0.1 | 3220 | – | – | 552 | 350 | 234 | 163 | 118 | 90 | 70
x2 = 0.201 | 1300 | – | – | 287 | 194 | 137 | 100 | – | 59 | –
x2 = 0.302 | 546 | 338 | 218 | 149 | 106 | 79 | 61 | – | – | –
x2 = 0.399 | – | 167 | 115 | 83 | – | – | – | – | – | –
x2 = 0.499 | 125 | – | 64 | – | – | – | – | – | – | –
x2 = 0.6 | 65 | – | – | – | – | – | – | – | – | –

CCC=C[n+]1ccn(C)c1C.O=[N+]([O-])c1cn[n-]c1 + COCCOCCOCCOCCOC
viscosity [mPa·s]
Details | 278.15 K | 283.15 K | 288.15 K | 293.15 K | 298.15 K | 303.15 K | 308.15 K | 313.15 K | 318.15 K | 323.15 K
x1 = 0.4 | 70 | 51 | – | – | – | – | – | – | – | –
x1 = 0.5 | 139 | 97 | 70 | 53 | – | – | – | – | – | –
x1 = 0.601 | – | 176 | 121 | – | 65 | – | – | – | – | –
x1 = 0.701 | 622 | 385 | 249 | 169 | – | 89 | 69 | 53 | – | –
x1 = 0.801 | 1280 | 737 | 447 | 288 | 195 | – | 101 | 77 | 60 | –
x1 = 0.9 | 2810 | – | – | 525 | 338 | 228 | 161 | – | 89 | 70
x1 = 0.952 | – | 2200 | – | 706 | – | 289 | 204 | 140 | 104 | –

CCCCCCCCCCCCCC[P+](CCCCCC)(CCCCCC)CCCCCC.O=[N+]([O-])c1c[n-]cn1 + COCCOCCOCCOCCOC
viscosity [mPa·s]
Details | 278.15 K | 283.15 K | 288.15 K | 293.15 K | 298.15 K | 303.15 K | 308.15 K | 313.15 K | 318.15 K | 323.15 K
x2 = 0.189 | – | – | 726 | 522 | 384 | 290 | 222 | 173 | 138 | 111
x2 = 0.404 | 443 | 324 | 240 | 180 | 135 | – | 85 | 70 | 57 | –

CCCCCC[n+]1ccn(C)c1.O=S(=O)([N-]S(=O)(=O)C(F)(F)F)C(F)(F)F + COCCOCCOCCOCCOC
x2 = 0
Details | viscosity [mPa·s]
278.15 K | 204
283.15 K | 151
288.15 K | 115
293.15 K | 89

COCCOCCOCCOCCOC + CCCCCC[n+]1ccn(C)c1.O=S(=O)([N-]S(=O)(=O)C(F)(F)F)C(F)(F)F
viscosity [mPa·s]
Details | x1 = 0.099 | x1 = 0.19 | x1 = 0.276 | x1 = 0.413 | x1 = 0.544
278.15 K | 171 | 130 | 109 | 78 | 50
283.15 K | 126 | 97 | 81 | 60 | –
288.15 K | – | 74 | 63 | – | –
293.15 K | 74 | 57 | – | – | –

CCCCCC[n+]1ccn(C)c1C.O=S(=O)([N-]S(=O)(=O)C(F)(F)F)C(F)(F)F + COCCOCCOCCOCCOC
Details | viscosity [mPa·s]
278.15 K, x2 = 0 | 485
278.15 K, x2 = 0.102 | 370
278.15 K, x2 = 0.205 | 251
278.15 K, x2 = 0.306 | 161
278.15 K, x2 = 0.399 | 109
278.15 K, x2 = 0.499 | 70
278.15 K, x2 = 0.599 | 48
283.15 K, x2 = 0 | 335
283.15 K, x2 = 0.102 | 258
283.15 K, x2 = 0.205 | 177
283.15 K, x2 = 0.306 | 116
283.15 K, x2 = 0.399 | 81
283.15 K, x2 = 0.499 | 53
288.15 K, x2 = 0 | 236
288.15 K, x2 = 0.102 | 184
288.15 K, x2 = 0.205 | 129
288.15 K, x2 = 0.306 | 86
288.15 K, x2 = 0.399 | 61
293.15 K, x2 = 0 | 172
293.15 K, x2 = 0.205 | 96
298.15 K, x2 = 0.205 | 74
303.15 K, x2 = 0 | 99
303.15 K, x2 = 0.102 | 80
303.15 K, x2 = 0.205 | 58
308.15 K, x2 = 0 | 78
313.15 K, x2 = 0 | 63
313.15 K, x2 = 0.102 | 52

CCCC[P+](CC)(CC)CC.Cc1ncc([N+](=O)[O-])[n-]1 + COCCOCCOCCOCCOC
viscosity [mPa·s]
Details | 278.15 K | 283.15 K | 288.15 K | 293.15 K | 298.15 K | 303.15 K | 308.15 K | 313.15 K | 318.15 K | 323.15 K
x2 = 0.048 | – | 975 | 634 | 428 | 299 | 215 | – | 121 | 94 | 74
x2 = 0.102 | 972 | – | 421 | 291 | – | 153 | 116 | – | 71 | 57
x2 = 0.201 | 516 | 350 | 243 | 175 | – | 99 | 77 | 62 | – | –
x2 = 0.299 | 258 | 183 | 134 | 100 | 76 | 60 | – | – | – | –
x2 = 0.401 | 134 | – | 74 | 57 | – | – | – | – | – | –
x2 = 0.501 | 74 | – | – | – | – | – | – | – | – | –

CCCCCCCC[P+](CC)(CC)CC.O=[N+]([O-])c1cn[n-]c1 + COCCOCCOCCOCCOC
viscosity [mPa·s]
Details | 278.15 K | 283.15 K | 288.15 K | 293.15 K | 298.15 K | 303.15 K | 308.15 K | 313.15 K | 318.15 K | 323.15 K
x2 = 0 | 1340 | – | – | 398 | 282 | 207 | 155 | 119 | – | 75
x2 = 0.051 | 1010 | 666 | 452 | 317 | 229 | – | 130 | 101 | 80 | 65
x2 = 0.102 | 693 | 471 | – | 234 | 172 | 130 | 101 | 80 | 64 | 52
x2 = 0.199 | 395 | 277 | 199 | 147 | 112 | 87 | – | – | – | –
x2 = 0.3 | 229 | 166 | 123 | 94 | 73 | 58 | – | – | – | –
x2 = 0.404 | 129 | – | 74 | 59 | – | – | – | – | – | –
x2 = 0.503 | – | 60 | – | – | – | – | – | – | – | –

CCCCCCCCCCCC[P+](CCCC)(CCCC)CCCC.c1c[n-]nn1 + COCCOCCOCCOCCOC
viscosity [mPa·s]
Details | x2 = 0.062 | x2 = 0.123 | x2 = 0.155 | x2 = 0.214 | x2 = 0.305 | x2 = 0.395 | x2 = 0.495 | x2 = 0.596
278.15 K | 1980 | 1230 | 907 | 671 | – | 226 | 131 | –
283.15 K | 1260 | 809 | 608 | 458 | 256 | 165 | 98 | 57
288.15 K | 824 | – | 419 | 320 | 186 | – | 75 | –
293.15 K | 557 | – | 297 | 231 | 139 | 95 | – | –
298.15 K | 389 | 276 | 218 | 171 | – | 74 | – | –
303.15 K | 280 | 203 | 164 | 130 | 84 | 59 | – | –

CC(=O)[O-].CCCCCCCCCCCCCC[P+](CCCCCC)(CCCCCC)CCCCCC + COCCOCCOCCOCCOC
viscosity [mPa·s]
Details | 278.15 K | 283.15 K | 288.15 K | 293.15 K | 298.15 K | 303.15 K | 308.15 K | 313.15 K | 318.15 K | 323.15 K
x2 = 0.103 | 1160 | 789 | – | 392 | – | 216 | 166 | – | 103 | 84
x2 = 0.207 | – | – | 332 | 244 | 184 | 142 | 112 | 89 | 73 | 60
x2 = 0.299 | 401 | 291 | 215 | 162 | 125 | 99 | 79 | 64 | 53 | –
x2 = 0.4 | 257 | 191 | – | 111 | – | 70 | 57 | – | – | –
x2 = 0.499 | – | 121 | 92 | 73 | 58 | – | – | – | – | –
